Experimental data taken from patent publication US10183936B2, “Hepatitis B core protein allosteric modulators” (priority 2014, dated 2019).

Tests used:
[1] = tested on: HBV viral production in AD38 cells; test: Viral load production in AD38 cells by quantitative PCR of the HBV core sequence in supernatant; format: cell-based; conditions: Hepatitis B virus, 144 h; 10 μM compound, 6 days at 37° C., viral load in supernatant compared against DMSO control wells; read-out: AD38 Viral Load (CpAM/DMSO %) at 10 μM
Outline: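 AD38 cells seeded at 50,000/well, treated 6 days at 37° C with compound added as 10× solution in 10% DMSO. HBV core sequence in clarified supernatant quantified by TaqMan qPCR against known standards; viral load compared with DMSO control wells.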

[2] = tested on: AD38 cells; test: Viability of AD38 cells (Promega CellTiter-Glo) at the end of compound treatment; format: cell-based; conditions: 10 μM compound, 6 days, luminescence normalized against DMSO control wells (controls being 100%)
Outline: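 AD38 cells seeded at 50,000/well received compound from a 10× solution in 10% DMSO and were incubated 6 days at 37° C. Viability was then read by CellTiter-Glo luminescence in tetracycline-free medium with 2% FBS and 1% DMSO, normalized to DMSO control wells (100%) and reported as percent viability.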

Compound	activity at 10 µM [1] [%]	AD38 Viability Normalized Result (CPAM/DMSO %) at 10 μM [2] [%]
O=C(NCCc1ccc(-c2ccccc2)cc1)c1cc2c(cc1F)Sc1ccccc1C(=O)N2 [Compound 1491]	39	80
O=C(NCCc1ccc(O)cc1)c1ccc2c(c1)NC(=O)c1ccccc1S2 [Compound 1115]	1	106
O=C(NCc1cscn1)c1ccc2c(c1)NC(=O)c1ccccc1S2 [Compound 1584]	52	95
CCc1ncsc1CNC(=O)c1ccc2c(c1)NC(=O)c1ccccc1S2 [Compound 1631]	9	112
O=C1Nc2c(cc(F)c(C(=O)NCCc3ccccn3)c2F)Sc2ccccc21 [Compound 1519]	73	81
O=C(NCc1cncnc1)c1ccc2c(c1)NC(=O)c1cc(F)ccc1S2 [Compound 1308]	1	99
O=C(NC[C@H](CO)c1ccccc1)c1ccc2c(c1)NC(=O)c1ccccc1S2 [Compound 1258]	12	105
O=C(Nc1cncs1)c1ccc2c(c1)NC(=O)c1cc(F)ccc1S2 [Compound 1335]	87	104
O=C(NCc1cnco1)c1ccc2c(c1)NC(=O)c1cccc(F)c1S2 [Compound 1408]	17	94
O=C(Nc1ccncc1)c1ccc2c(c1)NC(=O)c1ccccc1S2 [Compound 1444]	6	65
COc1ncc(CNC(=O)c2ccc3c(c2)NC(=O)c2ccccc2S3)s1 [Compound 1612]	0	112
O=C1Nc2cc(S(=O)(=O)Nc3ccccc3)ccc2Sc2ccccc21 [Compound 1412]	48	87
COC(=O)c1ccc(CCNC(=O)c2ccc3c(c2)NC(=O)c2ccccc2S3)cc1 [Compound 1117]	67	108
O=C(NCc1cnco1)c1ccc2c(c1)NC(=O)c1ccccc1S2 [Compound 1264]	8	104
O=C(NCCc1ccc(Br)cc1)c1ccc2c(c1)NC(=O)c1ccccc1S2 [Compound 1122]	21	86
O=C(NCCC1CCCCC1)c1ccc2c(c1)NC(=O)c1cnccc1S2 [Compound 1257]	26	113
O=C(NCCc1cnco1)c1ccc2c(c1)NC(=O)c1ccccc1S2(=O)=O [Compound 1616]	5	115
COC(=O)c1ccccc1-c1cccc(NC(=O)c2ccc3c(c2)NC(=O)c2cc(F)ccc2S3)c1 [Compound 1436, Methyl 3′-(2-fluoro-11-oxo-10, 11-dihydrodibenzo [b,f] [1,4]thiazepine-8-carboxamido)-[1, 1′-biphenyl]-2-carboxylate]	10	104
CCc1cccc(CNC(=O)c2ccc3c(c2)NC(=O)c2ccccc2S3)c1 [Compound 1283]	1	97
COc1ccc(CCNC(=O)c2ccc3c(c2)NC(=O)c2ccccc2S3)cc1OC [Compound 1125]	20	108
CN(C)S(=O)(=O)c1ccc(CCCNC(=O)c2ccc3c(c2)NC(=O)c2ccc(F)cc2S3)cc1 [Compound 1398]	5	60
CN(C)S(=O)(=O)c1ccc(CCNC(=O)c2ccc3c(c2)NC(=O)c2c(F)cccc2S3)cc1 [Compound 1477]	67	16
O=C(Nc1cccc(-c2cccc(O)c2)c1)c1ccc2c(c1)NC(=O)c1cc(F)ccc1S2 [Compound 1468]	76	97
O=C(NCCc1cc[nH]n1)c1ccc2c(c1)NC(=O)c1ccccc1S2 [Compound 1270]	1	94
O=C(NCc1ccccc1)c1ccc2c(c1)NC(=O)c1ccccc1S2 [Compound 1107]	2	106
Cc1ccccc1CNC(=O)c1ccc2c(c1)NC(=O)c1ccccc1S2 [Compound 1187]	1	73

Compound	activity at 10 µM [1] [%]	AD38 Viability Normalized Result (CPAM/DMSO %) at 10 μM [2] [%]
CN1c2ccc(C(=O)NCc3cncnc3)cc2NC(=O)c2ccccc21 [Compound 1520]	1	81
O=C(NCCc1cncs1)c1ccc2c(c1)NC(=O)c1ccccc1N2Cc1ccccc1 [Compound 1511]	38	85
O=C(NCC1CCCO1)c1ccc2c(c1)NC(=O)c1ccccc1S2 (stereo not drawn) [Compound 1592]	50	102
CN(C)C(=O)c1ccc2c(c1)Sc1ccc(C(=O)NCCc3ccccc3)cc1NC2=O [Compound 1281, N^3,N^3-dimethyl-11-oxo-N^8-phenethyl-10, 11-dihydrodibenzo [b,f] [1,4] thiazepine-3,8-dicarboxamide]	29	86
O=C1Nc2cc(S(=O)(=O)NCc3ccc(F)cc3)ccc2Sc2ccccc21 [Compound 1415]	27	77
Cc1c(C(=O)NCCc2ccccn2)ccc2c1NC(=O)c1ccccc1S2 [Compound 1459]	4	92
O=C(NCCc1cccnc1)c1ccc2c(c1)NC(=O)c1cc(F)ccc1S2 [Compound 1376]	3	63
O=C(NCc1cncs1)c1ccc2c(c1)NC(=O)c1ccccc1O2 [Compound 1593]	3	133
O=C1Nc2cc(S(=O)(=O)N3CC(O)C3)ccc2Sc2ccccc21 [Compound 1434]	85	96
O=C(NCc1cncs1)c1cc2c(cc1F)Sc1ccccc1C(=O)N2 [Compound 1429]	38	90
O=C(NCCC1CCCCC1)c1ccc2c(c1)NC(=O)c1ccccc1S2(=O)=O [Compound 1206, N-(2-cyclohexylethyl)-11-oxo-10, 11-dihydrodibenzo [b,f] [1,4] thiazepine-8-carboxamide 5,5-dioxide]	10	106
CCc1cccc(CCNC(=O)c2ccc3c(c2)NC(=O)c2ccccc2S3)c1 [Compound 1260]	8	100
O=C(NCc1ccccn1)c1ccc2c(c1)NC(=O)c1ccccc1S2 [Compound 1210]	25	116
O=C(NCc1cccnc1)c1ccc2c(c1)NC(=O)c1ccccc1C2 [Compound 1591]	13	111
CC(=O)Nc1ccccc1NC(=O)c1ccc2c(c1)NC(=O)c1ccccc1S2 [Compound 1242]	91	78
O=C(NC[C@H](C(=O)O)c1ccccc1)c1ccc2c(c1)NC(=O)c1ccccc1S2 [Compound 1268, (R)-3-(11-oxo-10, 11-dihydrodibenzo [b,f] [1,4]thiazepine-8-carboxamido)-2-phenylpropanoic acid]	77	106
O=C(NCCc1ccc(-n2nccn2)cc1)c1ccc2c(c1)NC(=O)c1ccccc1S2 [Compound 1256]	1	102
O=C(NCc1ncccn1)c1ccc2c(c1)NC(=O)c1ccccc1S2 [Compound 1587]	78	92
O=C(NCCCCc1ccccc1)c1ccc2c(c1)NC(=O)c1ccccc1S2 [Compound 1109]	6	99
O=C(Nc1ccc2ncoc2c1)c1ccc2c(c1)NC(=O)c1cc(F)ccc1S2 [Compound 1331]	43	88
O=C(NCc1cncnc1)c1ccc2c(c1)NC(=O)c1ccccc1O2 [Compound 1595]	3	108
CN(C)S(=O)(=O)c1ccc(CCNC(=O)c2cc3c(cc2F)Sc2ccccc2C(=O)N3)cc1 [Compound 1507]	11	96
COc1cccc(-c2cccc(NC(=O)c3ccc4c(c3)NC(=O)c3cc(F)ccc3S4)c2)c1 [Compound 1452]	15	62
O=C(Nc1ccccc1)c1ccc2c(c1)NC(=O)c1cc(F)ccc1S2 [Compound 1319]	16	83
O=C(NCc1cccc(F)c1)c1ccc2c(c1)NC(=O)c1ccccc1S2(=O)=O [Compound 1622]	0	120
